The test system of one data set is BALB/c mice. Nature of the data set: Hematocrit in mice IV injected with 3 μg TransIT-complexed EPO mRNA. Format: in vivo. As to the method: To confirm in vitro data, female BALB/c mice from Jackson Laboratory (Bar Harbor, ME, USA) at the age of eight to ten weeks were used for in vivo experiment in accordance with federal policies on animal research (Ethics approval number: G18-12-027). Mice (n=3/group) were injected intravenously (i.v.) with 3 μg TransIT-complexed (Mirus Bio) EPO mRNAs in a final volume of 200 μL Dulbecco's modified Eagle medium (DMEM). Mice used as controls were injected with TransIT-reagent diluted in DMEM but without RNA. Mice were injected with EPO mRNA complexed with TransIT-reagent and EPO levels in plasma were measured using ELISA (FIG. 8A). Hematocrit was measured from 18 μl of blood that was collected at the indicated times using centrifugation in Drummond microcaps glass capillary tubes (20 μl volume, Merck, Germany) as described (20) (FIG. 8B). After determination of the hematocrit, capillary tubes were snapped open, and the plasma was collected to measure EPO levels and analyzed for mouse Erythropoietin DuoSet ELISA kit (R&D Systems) according to the manufacturer's instructions. […] EPO RNA containing m1Ψ translated two-fold more than U-containing mRNA at each time points (FIG. 8A). Both compound I′-1 and compound I′-6 are suitable for translation of the encoded protein and each cap analog can be used for synthesizing of non-replicating functional mRNAs (FIG. 8A, 8B).
In each in vivo experiment in order to measure the translational efficiency and to determine the functionality of EPO mRNA capped with I′-1, I′-2, I′-3, I′-5, I′-6, I′-9, I′-12, I′-13, I′-16, CC114, and CC413 in vivo, female BALB/c mice from Jackson Laboratory (Bar Harbor, ME, USA) at the age of eight to ten weeks were used for in accordance with federal policies on animal research (Ethics approval number: G19-12-074). In each case, mice (n=3/group) were injected intravenously (i.v.) with 3 μg TransIT-complexed (Mirus Bio) EPO mRNAs in a final volume of 200 μL Dulbecco's modified Eagle medium (DMEM). Mice used as controls were injected with TransIT-reagent diluted in DMEM but without RNA. To measure hematocrits and EPO levels in the individual mice that were injected with EPO mRNA capped with I′-6, I′-1, CC114, and CC413 and complexed with TransIT-reagent, 18 μL of blood was collected at the indicated times (FIG. 8B) and centrifuged in Drummond microcaps glass capillary tubes (20 μl volume, Merck, Germany) as described (19). After determination of the hematocrit, capillary tubes were snapped open, and the plasma was collected to measure EPO levels and analyzed for mouse Erythropoietin DuoSet ELISA kit (R&D Systems) according to the manufacturer's instructions. […] EPO RNA containing m1Ψ modifications translated 2-3-fold, 5-fold, and 10-fold more than U-containing mRNAs at 6-24, 48 and 72 hours after injections, respectively. (FIG. 8A). […] To address translation of I′-6-capped mRNA in human primary hepatocytes, EPO level was measured from supernatants transfected using 0.1 μg/well TransIT-formulated I′-6- or CC114-capped uRNA (FIG. 13).

For a further data set, the system named is human PBMCs. The data set is described as follows: Cytokine/chemokine secretion in human PBMCs (MSD V-PLEX). It is filed as cell-based. The method, then: Human buffy coats from healthy individuals were obtained from the Faculty of Medicine of Johannes Gutenberg University, Mainz and used to isolate peripheral blood mononuclear cells (PBMCs) on a Ficoll-Paque™ PLUS (Cytiva, Marlborough, MA, USA) density gradient. In preparation for mRNA transfection, cryopreserved PBMCs were thawed and seeded into 96-well plates at a density of 5×10^5 cells per well in 190 μL RPMI medium supplemented with 1% non-essential amino acids (NEAA), 1% sodium pyruvate and 10% Fetal Bovine Serum (Merck, Germany). Cells were maintained at 37° C. with 5% CO2 until transfection with 0.5, 1.5, 5.0 and 15 μg/ml lipoplex-formulated EPO mRNA (LPX-RNA), as described in Kranz, L. M., et al. (2016) Nature, 534, 396-401. The complexed RNA (10 μl per well) was added in triplicates and supernatants were collected at 24 h after transfection to perform single cell cytotoxicity assay and to measure the cytokine/chemokine profile. To determine the cell viability and the production of selected cytokines/chemokines, supernatants from human PBMCs transfected with LPX-RNA were subjected to XTT cytotoxicity test using Cell Proliferation Kit II (Sigma-Aldrich) and cytokine/chemokine profile analysis using the Meso Scale Discovery V-PLEX Custom Human Biomarkers Proinflammatory and Chemokine Panel (Meso Scale Diagnostics—MSD, Rockville, MD, USA) according to the manufacturer's instructions, respectively. In regards of cytokine/chemokine profile analysis, a sample dilution of 1:5 (supernatant:MSD diluent) was used in each experiment. The levels of IL-6 (Interleukin 6), TNF-α (Tumor necrosis factor alpha), IL-1 (Interleukin 1 beta), IFN-γ (Interferon gamma), MCP-1 (Monocyte Chemoattractant Protein-1), […] (Macrophage inflammatory protein 1 beta) and IL-10 (Interleukin 10) were quantified 24 h after the mRNA transfection. […] This low immunogenicity can be directly attributed to the nucleoside modifications incorporated into the mRNA. To illustrate this, cells treated with lipid-complexed U-containing mRNA capped with compound I′-1, CC114 and CC413 induced much higher proinflammatory cytokine/chemokine responses even at their lowest dose (0.5 μg/ml) when compared to m1Ψ-modified mRNA (FIG. 6).
To test the effect of the cap types and mRNA 5′end on immunogenicity in human peripheral blood monocyte cells (PBMCs) we compared changes in levels of cytokines and chemokines after application of Lipoplex (LPX)-formulated EPO mRNAs. First, we compared the impact of m1Ψ-mRNA capped with I′-6 containing a UAGU 5′end vs. CC413 (AGAAU 5′end) (FIG. 12). […] Second, we compared capped EPO uRNA with I′-6 or I′-1 (FIG. 14). In this case both mRNAs had the same TAGT 5′end. […] Thus, benefit of I′-6 in decreasing the immunogenicity and thus increasing safety was found when I′-6 was used.

We go through one molecule from US20260109727A1, “RNA CONSTRUCTS AND USES THEREOF” (BioNTech SE, priority 2022, published 2026).

Entries after “also recorded” stand apart in the source; their conditions may differ.

For the molecule `COC1C(OP(=O)(O)OC[C@H]2O[C@@H](c3cn(C)c(=O)[nH]c3=O)C(O)C2O)[C@@H](COP(=O)(O)OP(=O)([O-])OP(=O)(O)OC[C@H]2O[C@@H](n3c[n+](C)c4c(O)nc(N)nc43)C(O)C2OC)O[C@H]1n1cnc2c(N)ncnc21` (stereo partly shown) [I′-6, m^7G(^3′-OMe)pppA(2′-OMe)pm^1Ψ], the “hematocrit value at 21 days compared with CC413-capped mRNA” value in the data set with BALB/c mice (21 days after administration) was “at the same level as the values of D7 and D14”. Moreover, in the data set with BALB/c mice (D14 after injection), the “decrease of hematocrit values from D14” value is recorded as “not observed”. The hematocrit values entry in the data set with BALB/c mice (up to day 21 after injection) was “very high and further increased after day 14; also recorded: remained very high level”. In addition, the “cytokines (IL-6, TNF-α, IL-1β, IFN-γ), compared with I′-1” value in the data set on human PBMCs (EPO uRNA, same TAGT 5′end, 24 h after application) is “significantly lower”. Besides, in the data set on human PBMCs (LPX-formulated EPO mRNA, across the concentrations tested), the “increase in levels of proinflammatory cytokines and chemokines, compared with CC413” value is reported as “less of an increase”. Also, the “MIP-1β, compared with CC413” value with human PBMCs (LPX-m1Ψ-mRNA, 0.333 and 1 μg/well (1.7 and 5 μg/ml)) is reported as “decrease”. For the same molecule, in the data set on human PBMCs (LPX-m1Ψ-mRNA, 1 and 3 μg/well (5 and 15 μg/ml)), the “cytokines (IL-6, TNF-α, IL-1, IFN-γ), compared with CC413” value is “significant decrease”.
